Source: patent US5232846A, “Method for producing a thermostable lipoprotein lipase from streptomyces” (Unitika Ltd., priority 1988, dated 1993)

Columns and labels:
[1] = test system: LPL of the present invention produced by Streptomyces 7825; assay: Inhibition of the LPL; type: biochemical
[2] = test system: LPL of the present invention produced by Streptomyces 7825; assay: Substrate specificity of the LPL on lipoproteins consisting of various triglycerides; type: biochemical; conditions: relative to olive oil as a standard (100%)
Description: In Table 1, the activity is expressed relative to an olive oil as a standard (100%).
Titer determination is principally based on the quantitative determination of glycerol formed through the action of LPL on artificial lipoprotein prepared from olive oil as described in Clin. Chim. Acta., Vol. 22, p.
A mixture of 5 g of olive oil and 5 ml of a 5% (v/v) Triton X-100 solution is subjected to ultrasonication for 10 minutes to prepare a substrate emulsion.
Seventy microliters of the abovementioned substrate solution, 20 μl of a 0.5M glycine buffer (pH 8.5), 50 μl of 10% (w/v) BSA, and 55 μl of water are mixed in a test tube, and the system is preheated at 37° C. 5 μl of an enzyme solution having an enzyme concentration adjusted to about 10 U/ml, is added to the system. The system is then allowed to react at 37° C. for 10 minutes. After completion of the reaction, the test tube is soaked in boiling water to stop the reaction. After allowing the test tube to cool, 400 μl of isopropanol is added to the reaction system, followed by stirring. The mixture is then centrifuged. 2 ml of isopropanol is then added to 100 μl of the supernatant liquor. The solution is mixed with 1 ml of the above prepared metaperiodic acid solution and 0.5 ml of the above prepared acetylacetone solution to effect a reaction at 50° C. for 30 minutes. The absorbance of the system at 405 nm is measured. A blank estimation (control) is run on a system containing no enzyme solution.
From the measured values, a calibration curve is prepared using a glycerol solution having a known concentration. Thus the glycerol content of the reaction mixture is determined using the prepared calibration curve.
The enzyme activity is expressed by taking the amount of the enzyme which forms 1 μmol of glycerol per minute as 1 U.

Compound	Relative Activity [2] [%]	also measured
[Cl-].[Na+] [NaCl]		inhibition of LPL ([1]; 3M NaCl): about 40%
CC(=O)OCC(COC(C)=O)OC(C)=O [Triacetin]	28	
CCCC(=O)OCC(COC(=O)CCC)OC(=O)CCC [Tributyrin]	22	
CCCCCCCCCC(=O)OCC(COC(=O)CCCCCCCCC)OC(=O)CCCCCCCCC [Tricaprin]	153	
CCCCCC(=O)OCC(COC(=O)CCCCC)OC(=O)CCCCC [Tricaproin]	46	
CCCCCCCC(=O)OCC(COC(=O)CCCCCCC)OC(=O)CCCCCCC [Tricaprylin]	148	
CCCCCCCCCCCC(=O)OCC(COC(=O)CCCCCCCCCCC)OC(=O)CCCCCCCCCCC [Trilaurin]	234	
CCCCCCCC/C=C\CCCCCCCC(=O)OCC(COC(=O)CCCCCCC/C=C\CCCCCCCC)OC(=O)CCCCCCC/C=C\CCCCCCCC [Triolein]	75	
CCCCCCCCCCCCCCCC(=O)OCC(COC(=O)CCCCCCCCCCCCCCC)OC(=O)CCCCCCCCCCCCCCC [Tripalmitin]	99	
CCCCCCCCCCCCCCCCCC(=O)OCC(COC(=O)CCCCCCCCCCCCCCCCC)OC(=O)CCCCCCCCCCCCCCCCC [Tristearin]	29	
C[C@H](CCC(=O)O)[C@H]1CC[C@H]2[C@@H]3CC[C@@H]4C[C@H](O)CC[C@]4(C)[C@H]3C[C@H](O)[C@]12C [deoxycholic acid]		inhibition of LPL ([1]; 10 mM deoxycholic acid): about 40%
protamine sulfate		inhibition of LPL ([1]; 400 μg/ml protamine sulfate): about 30%
